Measured values from PMC9352230 (ACS Omega, 2022).
Entries after “also recorded” stand apart in the source; their conditions may differ. One block for each compound: values may come before it.

Assays:
[1] = test system: MCF7 (human breast cancer cell line); experiment: MTT cytotoxicity assay, MCF7; assay type: cell-based; details: MCF7, 24 h, read-out: MCF7 (% inhibition ±SD)
ENPP3 [2] = molecular target: T1, ENPP3 (Homo sapiens, UniProt O14638); experiment: ENPP3 enzyme inhibition assay; assay type: biochemical
T1 sequence (O14638 1-875): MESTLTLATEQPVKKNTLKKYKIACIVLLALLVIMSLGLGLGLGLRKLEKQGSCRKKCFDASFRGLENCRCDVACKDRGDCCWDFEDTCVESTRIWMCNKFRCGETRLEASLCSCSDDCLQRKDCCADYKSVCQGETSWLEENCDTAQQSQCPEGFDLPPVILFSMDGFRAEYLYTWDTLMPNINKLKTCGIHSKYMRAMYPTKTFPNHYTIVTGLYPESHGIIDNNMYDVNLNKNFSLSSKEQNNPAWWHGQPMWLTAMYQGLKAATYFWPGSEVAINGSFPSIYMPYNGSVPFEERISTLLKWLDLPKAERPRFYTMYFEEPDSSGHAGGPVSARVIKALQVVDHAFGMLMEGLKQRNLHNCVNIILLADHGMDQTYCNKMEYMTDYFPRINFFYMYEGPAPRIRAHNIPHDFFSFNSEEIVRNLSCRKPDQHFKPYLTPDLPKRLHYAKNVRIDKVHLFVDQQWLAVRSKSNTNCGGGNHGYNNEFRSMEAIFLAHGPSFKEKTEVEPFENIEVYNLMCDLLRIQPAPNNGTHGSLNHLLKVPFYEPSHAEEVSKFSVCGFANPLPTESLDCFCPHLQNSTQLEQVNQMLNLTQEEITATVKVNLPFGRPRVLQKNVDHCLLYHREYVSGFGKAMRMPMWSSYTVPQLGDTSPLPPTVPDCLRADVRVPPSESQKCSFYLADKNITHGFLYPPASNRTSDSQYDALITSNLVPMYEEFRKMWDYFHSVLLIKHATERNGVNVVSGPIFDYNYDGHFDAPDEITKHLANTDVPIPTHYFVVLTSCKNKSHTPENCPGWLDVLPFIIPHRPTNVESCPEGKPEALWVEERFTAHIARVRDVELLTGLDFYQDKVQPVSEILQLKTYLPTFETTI

[3] = test system: HEK293 (human embryonic kidney cell line); experiment: MTT cytotoxicity assay, HEK293; assay type: cell-based; details: for inhibition at 100 µM: Homo sapiens, HEK293, 24 h, read-out: HEK293 (% inhibition ±SD)
ENPP1 [4] = molecular target: T2, ENPP1 (Homo sapiens, UniProt P22413); experiment: Enzyme kinetic study, Lineweaver-Burk plots, ENPP1; assay type: biochemical; details: triplicates
T2 sequence (P22413 1-925): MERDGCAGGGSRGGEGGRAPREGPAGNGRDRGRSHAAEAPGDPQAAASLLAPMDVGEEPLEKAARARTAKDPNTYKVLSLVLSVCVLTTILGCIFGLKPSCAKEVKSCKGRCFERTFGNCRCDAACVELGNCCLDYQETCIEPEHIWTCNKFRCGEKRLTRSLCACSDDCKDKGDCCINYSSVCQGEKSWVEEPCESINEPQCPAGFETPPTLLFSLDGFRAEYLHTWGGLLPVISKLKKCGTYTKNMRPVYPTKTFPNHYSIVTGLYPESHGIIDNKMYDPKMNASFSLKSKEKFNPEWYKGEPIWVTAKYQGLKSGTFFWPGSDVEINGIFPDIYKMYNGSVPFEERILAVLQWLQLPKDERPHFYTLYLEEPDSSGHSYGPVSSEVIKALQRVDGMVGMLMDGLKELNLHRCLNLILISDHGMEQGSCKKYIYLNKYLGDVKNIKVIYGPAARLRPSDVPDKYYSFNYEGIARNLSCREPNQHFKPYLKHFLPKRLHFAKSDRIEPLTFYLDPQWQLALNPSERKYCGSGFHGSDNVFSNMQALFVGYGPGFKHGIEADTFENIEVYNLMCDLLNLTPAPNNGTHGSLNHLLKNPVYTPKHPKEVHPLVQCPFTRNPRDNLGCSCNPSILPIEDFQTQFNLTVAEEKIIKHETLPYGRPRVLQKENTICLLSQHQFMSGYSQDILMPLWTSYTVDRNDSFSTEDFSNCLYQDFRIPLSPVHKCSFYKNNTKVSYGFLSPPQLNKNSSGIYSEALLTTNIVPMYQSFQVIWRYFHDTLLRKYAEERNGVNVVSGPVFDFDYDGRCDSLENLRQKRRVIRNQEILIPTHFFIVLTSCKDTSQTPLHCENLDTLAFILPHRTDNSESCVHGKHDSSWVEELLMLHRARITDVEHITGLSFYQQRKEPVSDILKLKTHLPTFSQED

ENPP1 [5] = molecular target: T2, ENPP1; experiment: ENPP1 enzyme inhibition assay; assay type: biochemical
ENPP1 [6] = details: read-out: ENPP1 IC50; selective inhibition of ENPP1; cited from earlier work
[7] = test system: HeLa (human cervical cancer cell line); experiment: MTT cytotoxicity assay, HeLa; assay type: cell-based; details: 100 μM compound, 24 h treatment, triplicate
ENPP3 [8] = molecular target: T1, ENPP3; experiment: Enzyme kinetic study, Lineweaver-Burk plots, ENPP3; assay type: biochemical; details: triplicates

inhibition at 100 µM (ENPP3 [2]; read-out: ENPP3 % inhibition ± SD): 42.1 ± 3.43%
IC50 (ENPP1 [5]): 0.23 ± 0.03 µM
Compound: CCCCc1ccc(S(=O)(=O)Oc2ccc(NC(=O)c3ccc(C)cc3)cc2)cc1 [4j, 4-(4-Methylbenzamido)phenyl 4-Butylbenzenesulfonate]
inhibition at 100 µM [1]: 13.3 ± 0.73%
inhibition at 100 µM [3]: 27.6 ± 2.55%
mode of inhibition of ENPP1 (ENPP1 [4]): uncompetitive; also recorded: uncompetitively

Compound: Cc1ccc(S(=O)(=O)Oc2ccc(-c3sc4cc(OS(=O)(=O)c5ccc(C)cc5)ccc4c3C(=O)c3ccc(OCCN4CCCCC4)cc3)cc2)cc1 [3-(4-(2-(piperidin-1-yl)ethoxy)benzoyl)-2-(4-(tosyloxy)phenyl)benzo[b]thiophen-6-yl-4-methylbenzenesulfonate]
IC50 (ENPP1 [6]): 450 nM

Compound: N.N.[Cl][Pt][Cl] [cisplatin, reference compound]
HeLa cell line (% inhibition ±SD) [7]: 84.3 ± 2.72%
HEK293 (% inhibition ±SD) ([3]; 100 μM compound, MTT, 24 h treatment, triplicate, normal cell line): 65.5 ± 1.48%

mode of inhibition of ENPP3 (ENPP3 [8]): competitively
IC50 (ENPP3 [2]): 380 ± 130 nM
IC50 (ENPP1 [5]): 18.9 ± 0.54 µM
Compound: Cc1ccc(S(=O)(=O)Oc2ccc(NC(=O)C3(C)c4ccccc4-c4ccccc43)cc2)cc1 [7e, 4-(9-Methyl-9H-fluorene-9-carboxamido)phenyl 4-Methylbenzenesulfonate]
inhibition at 100 µM [1]: 0.3 ± 0.15%
inhibition at 100 µM [3]: 12.4 ± 1.42%
